Test results from patent US20030211075A1 (priority 2001, published 2003).

Legend:
[1] = test system: L540 human Hodgkin's disease tumors; test: Treatment of L540rec tumor-bearing SCID mice with tTF and/or endotoxin, tumor tissue necrosis by densitometry; type: in vivo, mouse; settings: for % tumor necrosis: tTF alone (4 μg; 4 μg or 16 μg), no endotoxin, three days after i.v. treatment; for anti-tumor effect: tTF alone
Procedure: For in vivo studies, a metastasizing mouse model for human Hodgkin's lymphoma was used. 1×10^7 L540rec cells were injected subcutaneously into the right flank of SCID mice resulting in a subcutaneous tumor with lymph node metastases in the regional lymph node stations. Subcutanous tumors were measured with a caliper in three perpendicular directions a, b, and c, and volumes calculated according to the formula V=π/6×a×b×c.
Treatment was initiated when subcutaneous tumors reached a size of 150 to 300 μl. Reagents were administered into the lateral tail vein.
(§1) Mice were closely observed after treatment for clinical signs of toxicity and clinical status was documented at defined time points (5 minutes, 10 minutes, 15 minutes, 30 minutes. 1 hour. 2 hours, 24 hours, 48 hours, 72 hours). Blood samples were taken from the tail vein at 1 hour, 2 hours and 24 hours to measure TNFα blood levels. Three days after treatment, the mice were anesthetized, blood samples were taken from the vena cava for coagulation tests, and an autopsy was performed to document any changes in gross pathology. Tumors, lymph node metastases and the major normal organs (heart, lung, brain, liver, kidney, colon, spleen, pancreas) were harvested and prepared for histological analysis.
(§2) Tissue samples harvested at the time of autopsy were fixed in 3% NBF (normal buffered formalin) and embedded in paraffin wax. Tissue blocs were cut, dewaxed and stained with hematoxilin and eosin (H&E). Tissue sections were analyzed on a light microscope by two independent investigators and histological findings were documented. Tumor sections with necrotic areas were scanned with a GS-700 imaging densitometer (Biorad, Hercules, Calif.) and areas of necrosis were calculated as % of total section area. Statistical Analysis was performed using SPSS software (SPSS Science Software, Erkrath, Germany) applying the Mann-Whitney-U-test for ungrouped data.

[2] = Clinical signs of toxicity and histology of normal organs in treated tumor-bearing mice; type: in vivo, mouse; settings: for Symptoms: tTF alone (4 μg i.v.), no endotoxin
Procedure: as §1, §2

Q: With “tTF: extracellular domain of the mature Tissue Factor protein (amino acid 1-219), recombinant truncated human Tissue Factor” as the substance, how does the “% tumor necrosis” value [1] read?
A: Its value is 0%.

Q: And the “% tumor necrosis” value ([1]; listed as TTF)?
A: Its value is 4%.

Q: And the “% tumor necrosis” value ([1]; listed as endotoxin-free tTF)?
A: The value was 0%.

Q: What about the anti-tumor effect ([1]; 4 μg to 16 μg) of the same substance?
A: The anti-tumor effect was “no anti-tumor effect”.

Q: What about the anti-tumor effect ([1]; 100 μg) of the same substance?
A: The anti-tumor effect was “anti-tumor effects begin to appear”.

Q: And the “histology of normal organs” value ([2]; light microscopy, three days after treatment)?
A: The value was “No histological abnormalities were seen”.

Q: And the Symptoms ([2]; listed as TTF)?
A: The Symptoms was “None”.

Q: What about the Symptoms ([2]; listed as endotoxin-free tTF) of the same substance?
A: Its Symptoms is “no clinical signs of toxicity”.
